In data set [1] the test system is Botrytis cinerea. The experiment in a line: In vivo preventive test on Botrytis cinerea (grey mould) on gherkin, Examples B, Q1 and R2. To be noted: for pest or weed control at 100 ppm / pest or weed control at 500 ppm: Botrytis cinerea, read-out: Efficacy in %.
Data set [2] deals with Sphaerotheca fuliginea. The experiment in a line: In vivo preventive test on Sphaerotheca fuliginea (powdery mildew on cucurbits), Examples F and R6. The settings on record: Podosphaera fuliginea, 360 h; 500 ppm of active ingredient; gherkin, preventive spray, evaluated 15 days after inoculation; read-out: efficacy.
Data set [3] deals with Uromyces appendiculatus. The data set can be described thus: In vivo preventive test on Uromyces appendiculatus (bean rust), Examples G and R7. The settings on record: 264 h, 500 ppm of active ingredient, bean, preventive spray, evaluated 11 days after inoculation, read-out: efficacy.
In data set [4] the test system is Pyrenophora teres. The data set can be described thus: In vivo preventive test on Pyrenophora teres (net blotch on barley), Examples D, Q2 and R4. The settings on record: Pyrenophora teres, 336 h; for pest or weed control at 100 ppm: Example R4, rate of application 100 ppm.
For data set [5], the system named is Septoria tritici. The experiment in a line: In vivo preventive test on Septoria tritici (leaf spot on wheat), Examples E, Q3 and R5. To be noted: Zymoseptoria tritici, 576 h, 500 ppm of active ingredient; wheat, preventive spray, evaluated 24 days after inoculation; read-out: efficacy.
A short description of data set [6]: Measurement of LogP values by HPLC on reversed phase columns (EEC directive 79/831 Annex V.A8). The settings on record: method [a]: LC-UV, acidic range, 0.1% formic acid in water and acetonitrile as eluent; Table 1. The format is physicochemical. As for the experimental part:
Measurement of Log P values was performed as outlined above.

Data set [7] relates to Puccinia recondita. The experiment in a line: In vivo preventive test on Puccinia recondita (brown rust on wheat), Examples C and R3. The settings on record: Puccinia recondita, 264 h; 500 ppm of active ingredient; wheat, preventive spray, evaluated 11 days after inoculation; read-out: efficacy.
Setting [8] is: Example R2, rate of application 100 ppm.
[9] abbreviates: Example R2, rate of application 500 ppm.
The mark [10] stands for this setting: 500 ppm of active ingredient, preventive spray, evaluated 14 days after inoculation, read-out: efficacy.
Where [11] appears, read: Example R4, rate of application 500 ppm, read-out: Efficacy in %.

Read-outs that look alike come from different tables or passages of the source.

Regarding `OC(Cc1ccc(Cl)cc1F)(Cn1cnc(Br)c1)C1(Cl)CC1` (racemic) [drawing 79, reference compound], the Efficacy in % is recorded as 0% in data set [1] (setting [8]) and 19% in data set [1] (setting [9]).
Consider `N#Cc1cn(CC(O)(Cc2ccc(Cl)cc2F)C2(Cl)CC2)cn1` (racemic) [drawing 81, reference compound], for which the Efficacy in % in data set [1] (setting [8]) and in data set [1] (setting [9]) was 0% in each case.
Regarding `OC(Cc1ccc(Cl)cc1F)(Cn1cnc(Cl)c1)C1(Cl)CC1` (racemic) [drawing 83, reference compound], the Efficacy in % in data set [1] (setting [8]) and in data set [1] (setting [9]) was 0% each time.
For the compound `OC(Cc1cccnc1Cl)(Cn1cncc1Cl)C1(Cl)CC1` (stereo not drawn) [Example I-07], the pest or weed control at 500 ppm lay in the range of 90 to 100% in data set [2]; 90 to 100% in data set [3]; 70 to 79% in data set [4] (setting [10]); 90 to 100% in data set [5]; 80 to 89% in data set [7]. Moreover, the chromatographic logP (usually lipophilicity estimated from chromatographic retention) in data set [6] stood at 1.57.
For the compound `O=Cc1cncn1CC(O)(Cc1ccccc1Cl)C1(Cl)CC1` (stereo not drawn) [Example I-12], the pest or weed control at 500 ppm was in the range of 90 to 100% in data set [2]; 90 to 100% in data set [3]; 90 to 100% in data set [4] (setting [10]); 90 to 100% in data set [5]; 80 to 89% in data set [7].
As to `N#Cc1cncn1CC(O)(Cc1ccnc(Br)c1Br)C1(Cl)CC1` (stereo not drawn) [Example I-48], the pest or weed control at 500 ppm fell in the range of 90 to 100% in data set [2]; 90 to 100% in data set [3]; 70 to 79% in data set [4] (setting [10]); 90 to 100% in data set [5]; 80 to 89% in data set [7].
Consider `Cc1ccc(CC(O)(Cn2cncc2C#N)C2(Cl)CC2)c(C)c1` (stereo not drawn) [Example I-51], for which the pest or weed control at 500 ppm in data set [2] fell in the range of 90 to 100%; in data set [3], 80 to 89%; in data set [4] (setting [10]), 90 to 100%; in data set [5] it was 90 to 100%; in data set [7] it was 90 to 100%.
On to `N#Cc1cncn1CC(O)(Cc1cc(Cl)ncc1Cl)C1(Cl)CC1` (stereo not drawn) [Example I-56], for which the pest or weed control at 500 ppm lay in the range of 90 to 100% in data set [2]; 90 to 100% in data set [3]; 70 to 79% in data set [4] (setting [10]); 90 to 100% in data set [5]; 80 to 89% in data set [7]. In addition, the chromatographic logP in data set [6] amounted to 2.62.
For the compound `N#Cc1cncn1CC(O)(Cc1cccc(Cl)c1Cl)C1CCC1` (stereo not drawn) [Example I-85], the pest or weed control at 500 ppm in data set [2] was in the range of 90 to 100%; in data set [3] it was 90 to 100%; in data set [4] (setting [10]), 80 to 89%; in data set [5], 90 to 100%; in data set [7], 90 to 100%. Also, in data set [6], the chromatographic logP came to 3.31.
Regarding `OC(Cc1ccccc1C(F)(F)F)(Cn1cncc1Cl)C1(Cl)CC1` (stereo not drawn) [Example I-89], the pest or weed control at 500 ppm lay in the range of 90 to 100% in data set [2], 90 to 100% in data set [3], 80 to 89% in data set [4] (setting [10]) and 80 to 89% in data set [7]. Further, the chromatographic logP in data set [6] is 2.62.
Regarding `N#Cc1cncn1CC(O)(Cc1ccc(Cl)cc1F)CC1CC1` (stereo not drawn) [Example I-120], the pest or weed control at 500 ppm in data set [2] fell in the range of 90 to 100%; in data set [3] it was 90 to 100%; in data set [4] (setting [10]) it was 70 to 79%; in data set [5] it was 70 to 79%; in data set [7] it was 90 to 100%.
As for `COC(Cc1ccc(Cl)cc1F)(Cn1cncc1C#N)C1CC1` (stereo not drawn) [Example I-121], the pest or weed control at 500 ppm in data set [2] lay in the range of 90 to 100%; in data set [3], 90 to 100%; in data set [4] (setting [10]), 70 to 79%; in data set [5], 90 to 100%; in data set [7] it was 80 to 89%. Also, in data set [6], the chromatographic logP came to 3.31.
Consider `Cc1cccc(CC(O)(Cn2cncc2Cl)C2(Cl)CC2)c1F` (stereo not drawn) [Example I-143], for which the pest or weed control at 500 ppm is 90 to 100% in data set [2], 70 to 79% in data set [4] (setting [10]), 90 to 100% in data set [5] and 90 to 100% in data set [7]. The compound further displayed a chromatographic logP in data set [6] of 2.35.
On to `N#Cc1cncn1CC(O)(Cc1cccc(F)c1F)C1CCC1` (stereo not drawn) [Example I-148], for which the pest or weed control at 500 ppm in data set [3] lay within 90 to 100%; in data set [4] (setting [10]), 80 to 89%; in data set [5] it was 90 to 100%; in data set [7] it was 90 to 100%. Moreover, in data set [6], the chromatographic logP turned out to be 2.57.
On to `N#Cc1cncn1CC(O)(Cc1cccc(F)c1F)CC1CC1` (stereo not drawn) [Example I-151], for which the pest or weed control at 500 ppm is 90 to 100% in data set [2]; 90 to 100% in data set [3]; 70 to 79% in data set [4] (setting [10]); 90 to 100% in data set [5]; 80 to 89% in data set [7]. In data set [6], this compound had a chromatographic logP of 2.66.
As to `N#Cc1cncn1CC(O)(Cc1ccccc1I)C1(Cl)CC1` (stereo not drawn) [Example I-166], the pest or weed control at 500 ppm lay within 90 to 100% in data set [2]; 90 to 100% in data set [3]; 80 to 89% in data set [4] (setting [10]); 70 to 79% in data set [5]; 90 to 100% in data set [7]. The compound also displayed a chromatographic logP in data set [6] of 3.13.
`OC(Cc1ccccc1Cl)(Cn1cnc(Br)c1)C1(Cl)CC1` (stereo not drawn) [drawing 70, reference compound]: the pest or weed control at 100 ppm in data set [1] (setting [8]) came out at 5%. Also, the pest or weed control at 500 ppm in data set [1] (setting [9]) amounted to 0%.
Take `N#Cc1cn(CC(O)(Cc2ccccc2Cl)C2(Cl)CC2)cn1` (stereo not drawn) [drawing 72, reference compound]: in data set [1] (setting [8]), the pest or weed control at 100 ppm came out at 0%. Further, in data set [1] (setting [9]), the pest or weed control at 500 ppm stood at 0%.
For `C#Cc1cn(CC(O)(Cc2ccccc2F)C2(Cl)CC2)cn1` (stereo not drawn) [drawing 74, reference compound], in data set [1] (setting [8]), the pest or weed control at 100 ppm stood at 0%. In addition, the pest or weed control at 500 ppm in data set [1] (setting [9]) came to 0%.
Turning to `OC(Cc1ccccc1F)(Cn1cnc(Cl)c1)C1(Cl)CC1` (stereo not drawn) [drawing 76, reference compound], the pest or weed control at 100 ppm in data set [1] (setting [8]) was determined as 0%. For the same compound, the pest or weed control at 500 ppm in data set [1] (setting [9]) was 0%.
Turning to `OC(Cc1ccccc1F)(Cn1ccnc1Cl)C1(Cl)CC1` (stereo not drawn) [drawing 77, reference compound], in data set [1] (setting [8]), the pest or weed control at 100 ppm turned out to be 0%. Besides, in data set [1] (setting [9]), the pest or weed control at 500 ppm stood at 0%.
As for `N#Cc1cn(CC(O)(Cc2ccccc2F)C2(Cl)CC2)cn1` (stereo not drawn) [drawing 85, reference compound], the pest or weed control at 100 ppm in data set [1] (setting [8]) came out at 0%. Moreover, the pest or weed control at 500 ppm in data set [1] (setting [9]) was 0%.
For the compound `N#Cc1cn(CC(O)(Cc2ccccc2Cl)C2(Cl)CC2)cn1` (stereo not drawn) [drawing 108, reference compound], the pest or weed control at 100 ppm in data set [4] (read-out: Efficacy in %) was determined as 0%. Also, the pest or weed control at 500 ppm in data set [4] (setting [11]) is 0%.
Turning to `C#Cc1cn(CC(O)(Cc2ccccc2F)C2(Cl)CC2)cn1` (stereo not drawn) [drawing 110, reference compound], in data set [4] (read-out: Efficacy in %), the pest or weed control at 100 ppm was 0%. In data set [4] (setting [11]), the pest or weed control at 500 ppm amounted to 0%.
For `OC(Cc1ccccc1F)(Cn1cnc(Cl)c1)C1(Cl)CC1` (stereo not drawn) [drawing 112, reference compound], the pest or weed control at 100 ppm in data set [4] (read-out: Efficacy in %) is 0%. Further, the pest or weed control at 500 ppm in data set [4] (setting [11]) was found to be 0%.
With `OC(Cc1ccccc1F)(Cn1ccnc1Cl)C1(Cl)CC1` (stereo not drawn) [drawing 113, reference compound], in data set [4] (read-out: Efficacy in %), the pest or weed control at 100 ppm was determined as 0%. Moreover, the pest or weed control at 500 ppm in data set [4] (setting [11]) is 0%.
In the case of `N#Cc1cn(CC(O)(Cc2ccccc2F)C2(Cl)CC2)cn1` (stereo not drawn) [drawing 121, reference compound], the pest or weed control at 100 ppm in data set [4] (read-out: Efficacy in %) worked out at 0%. The pest or weed control at 500 ppm in data set [4] (setting [11]) was 0%.

The values above are taken from patent publication US10231453B2, “5-substituted imidazole derivatives” (BAYER CROPSCIENCE AKTIENGESELLSCHAFT, priority 2015, dated 2019).
